Results from PubChem BioAssay (NCI).
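Following 48 hours of exposure in 96-well plates, responses at five concentrations were used to interpolate endpoints linearly. At the TGI there is no net growth.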

Legend:
Test in all cases: NCI tumour cell line growth inhibition, 48 h
HCT-116 colon = test system: HCT-116 colon
HCT-15 colon = test system: HCT-15 colon
SK-MEL-2 melanoma = test system: SK-MEL-2 melanoma
MCF7 breast = test system: MCF7 breast
HOP-62 NSCLC = test system: HOP-62 NSCLC
UACC-257 melanoma = test system: UACC-257 melanoma
DU-145 prostate = test system: DU-145 prostate
K-562 leukemia = test system: K-562 leukemia
UACC-62 melanoma = test system: UACC-62 melanoma
HCC-2998 colon = test system: HCC-2998 colon

Structure (SMILES) | TGI (HCT-116 colon) [µM] | TGI (HCT-15 colon) [µM] | TGI (SK-MEL-2 melanoma) [µM] | TGI (MCF7 breast) [µM] | TGI (HOP-62 NSCLC) [µM] | TGI (UACC-257 melanoma) [µM] | TGI (DU-145 prostate) [µM] | TGI (K-562 leukemia) [µM] | TGI (UACC-62 melanoma) [µM] | TGI (HCC-2998 colon) [µM]
CC(=O)Nc1ccc(NS(=O)(=O)c2ccc3nc(C)n(NS(=O)(=O)c4ccc(NC(C)=O)cc4)c(=O)c3c2)cc1 | > 100 | > 100 | > 100 | > 100 | > 100 | > 100 | > 100 | > 100 | > 100 | > 100
Cc1sc2[nH]c(=O)oc(=O)c2c1C | > 100 | > 100 | > 100 | > 78.9 | > 100 | > 100 | > 100 | > 100 | > 100 | > 100
NC(=O)C(=O)c1ncn(Cc2ccccc2)c1N | > 100 | > 100 | > 100 | > 100 | > 100 | > 100 | > 100 | > 100 | > 100 | > 100
CC1=NN(c2nc(N)nc(CBr)n2)C(C)(C)C1 | 17.4 | 16.6 | 26.2 | 11.3 | 35.1 | 25.2 | 12.1 | > 100 | 21.7 | 30.6
NC(CSCc1ccc(I)cc1)C(=O)O (stereo not given) | > 100 | > 100 | > 100 | > 100 | > 100 | > 100 | > 100 | > 100 | > 100 | > 100
Cn1c(NNc2ccccc2)cc(=O)[nH]c1=O | > 100 | > 100 | > 100 | > 100 | > 100 | > 100 | > 100 | > 100 | > 100 | 97.5
O=C(c1ccccc1)c1ccc(N2C(=O)/C(=C/Cc3ccco3)N=C2c2ccccc2)c(N2C(=O)/C(=C/Cc3ccco3)N=C2c2ccccc2)c1 | > 100 | > 100 | 58.6 | > 100 | > 100 | > 100 | 96.6 | > 100 | > 100 | > 100
CCc1c(CN)c(CC)c(CNC2=NCCN2)c(CC)c1CNC1=NCCN1 | > 100 | > 100 | > 100 | > 100 | > 100 | > 100 | > 100 | > 100 | > 100 | > 100
FC(F)(F)c1ccc(Cc2nc3cc4ccccc4cc3[nH]2)cc1 | > 100 | > 100 | > 100 | > 100 | > 100 | > 100 | > 100 | > 100 | > 100 | > 100
CCCCCCCCCCCCCCCCCCNc1ccn(C2OC(COP(=O)(O)OCC3OC(n4cc(C)c(=O)[nH]c4=O)CC3F)C(O)C2O)c(=O)n1 (stereo not given) | 42.8 | 15.9 | 19.4 | > 64.5 | 33.1 | 27.8 | 46.2 | 42.5 | 12.6 | 13.5
Clc1c(Cl)c(Cl)c2c(nnn2C2CCCO2)c1Cl (stereo not given) | > 100 | 67 | 73.3 | > 100 | > 100 | > 100 | > 100 | 48.7 | > 100 | > 100
CCOP(=O)(OCC)C(C)(C)N(C)/C(F)=N/C(F)(F)F | > 100 | > 100 | > 100 | > 100 | > 100 | > 100 | > 100 | > 100 | > 100 | > 100
Clc1ccc(Nc2nnc(CCCCCCCCc3nnc(Nc4ccc(Cl)cc4)o3)o2)cc1 | 34.5 | > 100 | > 100 | > 100 | > 100 | > 100 | > 100 | > 100 | 78.4 | > 100
